The text below walks through data of the NIST ThermoML archive (doi:10.1021/acs.jced.6b00230).

For data set [1] the following is noted: Crystal.
Data set [2] is described as follows: Molar enthalpy of transition or fusion. Conditions: Crystal; DSC.

± gives the expanded uncertainty stated by the source.

For `O=C1NC(=O)c2cc([N+](=O)[O-])ccc21` [4-nitrophthalimide], in data set [1] (298.15 K, 101.33 kPa, Buoyancy - hydrostatic balance), the mass density – broadly, mass per unit of volume – amounted to 1594.7 ± 2.1 kg/m3. For the same compound, the Normal melting temperature in data set [1] (DTA) came to 201.56 ± 1.1 °C. Besides, in data set [2], the “Molar enthalpy of transition or fusion” value came out at 8.27 ± 0.263 kcal/mol.
